Our source for the IC50 values is US11427567B2, “Imidazolyl pyrimidinylamine compounds as CDK2 inhibitors” (Incyte Corporation, priority 2019, dated 2022).

The experiment addresses CDK2/Cyclin E1 (Homo sapiens (Human), UniProt P24941). Kind of experiment: CDK2/Cyclin E1 HTRF enzyme activity assay (Example A). Type of experiment: biochemical. The following applies: 1 mM ATP. Here is the method: Assays were conducted in white 384-well polystyrene plates in a final reaction volume of 8 μL. […] HTRF signals were read after 1 hour at room temperature on a PHERAstar FS plate reader (BMG Labtech). Data was analyzed with IDBS XLFit and GraphPad Prism 5.0 software using a three or four parameter dose response curve to determine IC50 for each compound.
In general terms: TR-FRET usually uses a lanthanide donor and a delayed reading to cut background.
As usually defined, the IC50 is the concentration that inhibits the measured activity by half. Read a high IC50 as lower potency. For the compound `CNC(=O)c1ccc(-n2cnc(-c3nc(NC4CCN(S(C)(=O)=O)CC4)ncc3C(F)(F)F)c2)c(Cl)c1Cl` [Example 137, 2,3-Dichloro-N-methyl-4-(4-(2-((1-(methylsulfonyl)piperidin-4-yl)amino)-5-(trifluoromethyl)pyrimidin-4-yl)-1H-imidazol-1-yl)benzamide], the IC50 was ≤ 50 nM.
For `Cc1c(-c2nc(NC3CCN(S(C)(=O)=O)CC3)ncc2C(F)(F)F)ncn1C` [Example 15, 4-(1,5-Dimethyl-1H-imidazol-4-yl)-N-(1-(methylsulfonyl)piperidin-4-yl)-5-(trifluoromethyl)pyrimidin-2-amine] the value was 50 to 200 nM; for `CN(C)Cc1ccc(-n2cnc(-c3nc(NC4CCN(S(C)(=O)=O)CC4)ncc3C(F)(F)F)c2)c(Cl)c1F` [Example 253, 4-(1-(2-Chloro-4-((dimethylamino)methyl)-3-fluorophenyl)-1H-imidazol-4-yl)-N-(1-(methylsulfonyl)piperidin-4-yl)-5-(trifluoromethyl)pyrimidin-2-amine], ≤ 50 nM; for `Cc1nc(CN2CC(C)(C)C2)ccc1-n1cnc(-c2nc(NC3CCN(S(C)(=O)=O)CC3)ncc2C(F)(F)F)c1` [Example 265, 4-(1-(6-((3,3-Dimethylazetidin-1-yl)methyl)-2-methylpyridin-3-yl)-1H-imidazol-4-yl)-N-(1-(methylsulfonyl)piperidin-4-yl)-5-(trifluoromethyl)pyrimidin-2-amine], ≤ 50 nM.
Under `Cc1ccc(-n2cnc(-c3nc(NC4CCN(S(C)(=O)=O)CC4)ncc3C(F)(F)F)c2)c(C#N)n1` [Example 36, 6-Methyl-3-(4-(2-((1-(methylsulfonyl)piperidin-4-yl)amino)-5-(trifluoromethyl)pyrimidin-4-yl)-1H-imidazol-1-yl)picolinonitrile] stands ≤ 50 nM; under `Cn1cnc(S(=O)(=O)N2CCC(Nc3ncc(C(F)(F)F)c(-c4cn(-c5ccc(C#N)cc5Cl)cn4)n3)CC2)c1` [Example 4, 3-Chloro-4-(4-(2-((1-((1-methyl-1H-imidazol-4-yl)sulfonyl)piperidin-4-yl)amino)-5-(trifluoromethyl)pyrimidin-4-yl)-1H-imidazol-1-yl)benzonitrile], ≤ 50 nM.
For `CS(=O)(=O)N1CCC(Nc2ncc(C(F)(F)F)c(-c3cn(-c4ccc(Cn5cnnn5)cc4Cl)cn3)n2)CC1` [Example 244, 4-(1-(4-((1H-Tetrazol-1-yl)methyl)-2-chlorophenyl)-1H-imidazol-4-yl)-N-(1-(methylsulfonyl)piperidin-4-yl)-5-(trifluoromethyl)pyrimidin-2-amine] the value was ≤ 50 nM.
For the compound `CS(=O)(=O)N1CCC(Nc2ncc(C(F)(F)F)c(-c3cn(-c4ccc(Cn5ncnn5)cc4Cl)cn3)n2)CC1` [Example 243, 4-(1-(4-((2H-Tetrazol-2-yl)methyl)-2-chlorophenyl)-1H-imidazol-4-yl)-N-(1-(methylsulfonyl)piperidin-4-yl)-5-(trifluoromethyl)pyrimidin-2-amine], the IC50 is ≤ 50 nM.
Under `CN(C)CCc1ccc(-n2cnc(-c3nc(NC4CCN(S(C)(=O)=O)CC4)ncc3C(F)(F)F)c2)c(C#N)c1` [Example 433, 5-(2-(Dimethylamino)ethyl)-2-(4-(2-((1-(methylsulfonyl)piperidin-4-yl)amino)-5-(trifluoromethyl)pyrimidin-4-yl)-1H-imidazol-1-yl)benzonitrile] stands ≤ 50 nM; under `CS(=O)(=O)N1CCC(Nc2ncc(C(F)(F)F)c(-c3cn(-c4ccc(Cn5cncn5)cc4Cl)cn3)n2)CC1` [Example 240, 4-(1-(4-((1H-1,2,4-Triazol-1-yl)methyl)-2-chlorophenyl)-1H-imidazol-4-yl)-N-(1-(methylsulfonyl)piperidin-4-yl)-5-(trifluoromethyl)pyrimidin-2-amine], ≤ 50 nM; under `COc1nccc(-n2cnc(-c3nc(NC4CCN(S(C)(=O)=O)CC4)ncc3C(F)(F)F)c2)c1Cl` [Example 295, 4-(1-(3-Chloro-2-methoxypyridin-4-yl)-1H-imidazol-4-yl)-N-(1-(methylsulfonyl)piperidin-4-yl)-5-(trifluoromethyl)pyrimidin-2-amine], ≤ 50 nM.
Under `CC(O)c1cccc(-n2cnc(-c3nc(NC4CCN(S(C)(=O)=O)CC4)ncc3C(F)(F)F)c2)c1Cl` (centres unmarked) [Example 83, 1-(2-Chloro-3-(4-(2-((1-(methylsulfonyl)piperidin-4-yl)amino)-5-(trifluoromethyl)pyrimidin-4-yl)-1H-imidazol-1-yl)phenyl)ethan-1-ol] stands ≤ 50 nM.
Under `CN1CCN(CCc2ccc(-n3cnc(-c4nc(NC5CCN(S(C)(=O)=O)CC5)ncc4C(F)(F)F)c3)c(Cl)c2)CC1=O` [Example 159, 4-(3-Chloro-4-(4-(2-((1-(methylsulfonyl)-piperidin-4-yl)-amino)-5-(trifluoro-methyl)pyrimidin-4-yl)-1H-imidazol-1-yl)phenethyl)-1-methylpiperazin-2-one] stands ≤ 50 nM; under `Cn1cnc(S(=O)(=O)N2CCC(Nc3ncc(C(F)(F)F)c(-c4ncn(C)c4Cl)n3)CC2)c1` [Example 20, 4-(5-Chloro-1-methyl-1H-imidazol-4-yl)-N-(1-((1-methyl-1H-imidazol-4-yl)sulfonyl)piperidin-4-yl)-5-(trifluoromethyl)pyrimidin-2-amine], ≤ 50 nM; under `CC(C)(O)C1CN(Cc2ccc(-n3cnc(-c4nc(NC5CCN(S(C)(=O)=O)CC5)ncc4C(F)(F)F)c3)c(Cl)c2)C1` [Example 203, 2-(1-(3-Chloro-4-(4-(2-((1-(methyl-sulfonyl)piperidin-4-yl)amino)-5-(trifluoromethyl)-pyrimidin-4-yl)-1H-imidazol-1-yl)-benzyl)azetidin-3-yl)propan-2-ol], ≤ 50 nM.
On to `Cc1cc(C#N)ccc1-n1cnc(-c2nc(NC3CCN(S(C)(=O)=O)CC3)ncc2C(F)(F)F)c1` [Example 35, 3-Methyl-4-(4-(2-((1-(methylsulfonyl)piperidin-4-yl)amino)-5-(trifluoromethyl)pyrimidin-4-yl)-1H-imidazol-1-yl)benzonitrile], for which the IC50 was ≤ 50 nM.
Under `CS(=O)(=O)N1CCC(Nc2ncc(C(F)(F)F)c(-c3cn(-c4cccnc4C(F)(F)F)cn3)n2)CC1` [Example 32, N-(1-(Methylsulfonyl)piperidin-4-yl)-5-(trifluoromethyl)-4-(1-(2-(trifluoromethyl)pyridin-3-yl)-1H-imidazol-4-yl)pyrimidin-2-amine] stands ≤ 50 nM.
Under `CS(=O)(=O)N1CCC(Nc2ncc(C(F)(F)F)c(-c3cn(-c4ccc(CN5CC6(CC(O)C6)C5)cc4Cl)cn3)n2)CC1` [Example 202, 2-(3-Chloro-4-(4-(2-((1-(methylsulfonyl)-piperidin-4-yl)amino)-5-(trifluoromethyl)-pyrimidin-4-yl)-1H-imidazol-1-yl)benzyl)-2-azaspiro[3.3]heptan-6-ol] stands ≤ 50 nM; under `CS(=O)(=O)N1CCC(Nc2ncc(C(F)(F)F)c(-c3cn(-c4ccc(CN5CCC5)nc4C(F)(F)F)cn3)n2)CC1` [Example 247, 4-(1-(6-(Azetidin-1-ylmethyl)-2-(trifluoromethyl)pyridin-3-yl)-1H-imidazol-4-yl)-N-(1-(methylsulfonyl)piperidin-4-yl)-5-(trifluoromethyl)pyrimidin-2-amine], ≤ 50 nM.
Consider `Cn1cc(-c2ccc(-n3cnc(-c4nc(NC5CCN(S(C)(=O)=O)CC5)ncc4C(F)(F)F)c3)c(C(F)(F)F)n2)cn1` [Example 98, 4-(1-(6-(1-Methyl-1H-pyrazol-4-yl)-2-(trifluoromethyl)pyridin-3-yl)-1H-imidazol-4-yl)-N-(1-(methylsulfonyl)piperidin-4-yl)-5-(trifluoromethyl) pyrimidin-2-amine], for which the IC50 is ≤ 50 nM.
